Results published in patent US20060252774A1, “Regulation of type 5 adenylyl cyclase for treatment of neurodegenerative and cardiac diseases” (priority 2002, published 2006).

Experiments:
WT and AC5KO mice [1] = test: Rotarod test with dopaminergic agonists; type: in vivo, mouse; settings: subcutaneous, 0.2 or 1.0 mg/kg
Protocol: (§1) FIG. 27. Motor dysfunction in ACD-^−/− mice. Rotarod test (A)—Each mouse was placed on a 3.5-cm diameter rod covered with rubber to evaluate rotarod performance (14). Mice were left for 1 minute on the rod for habituation. The rod rotated gradually increasing from 4 to 40 rpm over the course of 5 min and the time that mice could stay on an accelerating rotarod without failing was recorded. Five trials were conducted for each individual 10-25 min apart within the dark phase of the light/dark cycle. Mice that stayed on the rotarod for >300 sec were considered complete responders, and their latencies were recorded as 300 sec. *p<0.05, relative to ^+/+; ^+/−, n=17-20. Activity tests (B and C)—The tests were performed as previously described (14, 15). Mice were put in the darkened testing room 60 minutes for habituation before testing. Locomotor activity (B) was assessed using an activity monitor equipped with photocell beams (Columbus Instruments, Ohio, USA). The number of photobeam interruptions in each perpendicular axis was recorded and totaled for 5 min. The behavior of the mice was recorded simultaneously by video camera for later analysis, and their rearing actions were counted (C). *p<0.05, relative to ^+/+, n=15-20. Pole test (D)—In order to evaluate bradykinesia, pole test was performed (16). In brief, mice were placed head upward on the top of a rough-surfaced pole (8 mm in diameter and 50 cm in height) that was wrapped with gauze to prevent slipping. The time until it turned completely downward (open bars, Tturn) and the time until it climbed down to the floor (closed bars, TLA) were measured *p<0.01, relative to ^+/+, n=14-17. Means±SEM are shown. Homozygous to (ACD^−/−) (closed circles, ^−/−), heterozygous (shaded circles, ^+/−), and wild type (WT) (open circles, ^+/+).
(§2) FIG. 32. Effect of dopaminergic agonists on motor functions Effects of SKF38393 on locomotor activity (A), rotarod test (B), and pole test (C) were compared. […] In rotarod test, the best performance out of five trials in each individual was evaluated. […]

WT and AC5KO mice [2] = test: Locomotor activity test with dopaminergic agonists; type: in vivo, mouse; settings: subcutaneous, SKF38393 25 or 50 mg/kg, cabergoline 0.2 or 1.0 mg/kg
Protocol: as §1, with “Activity tests (B and C)—The tests were performed as previously described (14, 15). Mice were put in the darkened testing room 60 minutes for habituation before testing.” left out, “Pole test (D)—In order to evaluate bradykinesia, pole test was performed (16). In brief, mice were placed head upward on the top of a rough-surfaced pole (8 mm in diameter and 50 cm in height) that was wrapped with gauze to prevent slipping.” left out, “Means±SEM are shown. Homozygous to (ACD^−/−) (closed circles, ^−/−), heterozygous (shaded circles, ^+/−), and wild type (WT) (open circles, ^+/+).” left out
FIG. 32. […] In rotarod test, the best performance out of five trials in each individual was evaluated. […]

WT and AC5KO mice [3] = test: Pole test with dopaminergic agonists; type: in vivo, mouse
Protocol: as §1, §2

cardiac AC = test: AC assay in heart membrane preparations; type: biochemical, mouse; settings: 100 μmol/L ISO + 100 μmol/L GTP
Protocol: FIG. 17: Adrenergic, muscarinic, and Ca^2+-mediated regulation of cardiac AC activity. A, AC activity in vitro. The steady state AC activity was determined as the maximal cAMP production over 15 min. Stimulation was performed at the level of the β-AR (ISO), G-protein (GTPγS) and AC catalytic unit with forskolin (Fsk). *P<0.01, n=5. B, Effects of carbachol on AC activity. AC was preactivated by ISO. AC activity was then determined in the absence and presence of carbachol. Carbachol at 10 μmol/L produced its maximal inhibitory effect. *P<0.01, n−5. C, To investigate the inhibition of AC activity by Ca^2+, we examined cAMP production in membranes from the hearts of WT and AC5KO at increasing Ca^2+ concentrations in the presence of ISO. ISO-stimulated AC activity was inhibited more in WT than in AC5KO. […].
Hearts were dissected from the mice and membrane preparations were prepared as described previously. Protein concentration was measured by the method of Bradford using bovine serum albumin as a standard. AC activity was measured as described previously. AC activity was linear within the incubation time up to 30 min. In order to harvest hearts for tissue cAMP content measurements, mice were allowed to acclimate to the surroundings in the laboratory for an hour before sacrifice. Freshly isolated hearts were briefly immersed in liquid nitrogen. The tissue was homogenized in ice-cold 6% percholic acid, and cAMP was extracted as described before. The concentration of cAMP was determined with an RIA kit (PerkinElmer Life Sciences, Boston, Mass., USA).
Hearts were dissected from the mice, and membrane preparations were prepared as described previously. Protein concentration was measured by the Bradford method using bovine serum albumin as a standard. AC activity was measured as described previously. AC activity was linear within the incubation time up to 30 min. For the study of Ca 2+ inhibition, the membranes were treated first with EGTA to extract the endogenous Ca 2+ prior to the assay. Free Ca 2+ concentrations were obtained with the use of 200 μmol/L EGTA buffers as described previously. The experiments with Ca 2+ inhibition were conducted in the presence of 100 μmol/L isoproterenol (ISO)+100 μmol/L GTP.

L-type Ca2+ channels = test: Whole-cell patch-clamp of Ca2+ channel currents (ICa) in myocytes; type: cell-based, mouse
Excerpt: FIG. 22: A, Effects of ISO (1 μmol/L) on ICa in WT and AC5KO myoctyes. Traces show currents recorded from a holding potential of −50 mV to indicated potentials in control before (a) and after application of ISO (1 μmol/L) (b). Peak ICa were normalized to the cell capacitance to give current densities (pA/pF) and were plotted as a function of voltage (c). B, Concentration-dependent effects of ISO on ICa measured in myocytes dialyzed with EGTA or BAPTA, and on Ba^2+ currents with EGTA. The relative increase of peak current amplitude was plotted against ISO concentration. The solid lines were best fit to one-to-one binding model. Data are from 8-30 myocytes.
Whole-cell currents were recorded using patch-clamp techniques. Cell capacitance was measured using voltage ramps of 0.8 V/s from a holding potential of −50 mV. All experiments were performed at room temperature. […] The pipette solution contained (mmol/L): Cs-aspartate, 100; CsCl, 20; MgCl2, 1; MgATP, 2; GTP, 0.5; EGTA, 5 or 1,2-bis (2-aminophenoxy)ethane-N,N,N′,N′-tetraacetic acid (BAPTA), 10 and HEPES, 5 (Ph 7.3). […] Nifedipine (10 μmol/L) was added to block L-type Ca^2+ channel currents. The patch pipette solution contained (mmol/L): potassium aspartate, 110; KCl, 20; MgCl2, 2; ATP, 2; GTP, 0.5; EGTA, 5; HEPES, 5 (pH 7.3).
Ca^2+ influx through L-type Ca^2+ channels is essential for cardiac contractility, thus basic Ca^2+ channel properties were characterized. Peak inward ICa amplitude (with 5 mmol/L EGTA in the pipette solution), normalized relative to cell capacitance (ICa density), was similar in myocytes isolated from AC5KO (7.1±0.3 pA/pF, n=69) and WT (6.7±0.3 pA/pF, n=55). […] In these experiments myocytes were dialyzed with BAPTA, and peak ICa amplitude, as the function of voltage (I-V relationships) before and after exposure to ISO, was determined. In both groups, ISO increased the current amplitude at all test potentials and also shifted the I-V relationships toward more negative potentials.

[4] = tested on: WT, hetero and AC5KO mice; test: Rotor-rod test after db-cAMP injection; type: in vivo, mouse
Protocol: FIG. 9: Effects of db-cAMP on rotor-rod test. Tests were performed before (pre), 30 minutes after (post), and 48 hours after (next) the injection of db-cAMP to WT, hetero and AC5KO (n=4-7).
The locomotor activity of intact animals, AC5KO versus WT was examined (FIG. 5). At first glance the animals appeared normal, being neither catatonic nor rigid. […] The mice were studied using a rotor rod test in which mice were placed on a rototating rod and had to make continuous adjustment in balance in order to remain upright. The time that the mice spent on the accelerating rotor rod without falling was measured. The rod increased from 3 rpm to 30 rpm during each 5 min. trial. […] There was no significant difference between WT and Hetero at the 1st through 4th trial. At the 5th trial, there was a small but signiifcant decrease in their performance in Hetero.
Motor function may be improved by the administration of cAMP analogues.

Compound: C=CCN1C[C@H](C(=O)N(CCCN(C)C)C(=O)NCC)C[C@@H]2c3cccc4[nH]cc(c34)C[C@H]21 [Cabergoline]
- rotarod performance (WT and AC5KO mice [1]; AC5KO): improved rotarod performance selectively in AC5KO
- rotarod performance (WT and AC5KO mice [1]; WT): essentially had no effect on WT
- locomotor activity (WT and AC5KO mice [2]): no significant effect on locomotor activity in both WT and AC5KO
- pole test performance at the lower dose (WT and AC5KO mice [3]; 0.2 mg/kg): dramatic improvement
- pole test performance (WT and AC5KO mice [3]; subcutaneous): improved pole test performance

Compound: CC(C)NCC(O)c1ccc(O)c(O)c1 (stereo not shown) [ISO, isoproterenol]
- increase of AC activity (cardiac AC; AC5KO heart membranes): 64±4 pmol/15 min/mg
- increase of AC activity (cardiac AC; WT heart membranes): 78±6 pmol/15 min/mg
- maximum response of the Ca2+ channel (relative increase of peak current) (L-type Ca2+ channels; AC5KO myocytes, all three conditions (EGTA, BAPTA, Ba2+)): ~1.5 fold
- maximum response of the Ca2+ channel (relative increase of peak current) (L-type Ca2+ channels; WT myocytes dialyzed with EGTA): ~1.7 fold
- maximum response of the Ca2+ channel (relative increase of peak current) (L-type Ca2+ channels; WT myocytes, BAPTA or Ba2+): ~2.4 fold

Compound: CCCC(=O)Nc1ncnc2c1ncn2[C@@H]1O[C@@H]2COP(=O)(O)O[C@H]2[C@H]1OC(=O)CCC [db-cAMP]
- improvement of time on the rod ([4]; AC5KO, 30 minutes after injection): two-fold increase
- rotor rod performance 48 hours after injection ([4]; AC5KO, 48 hours after injection): dropped to the basal level
- improvement of time on the rod, increase ([4]; hetero and WT, 30 minutes after injection): 25-30%
